Literature values as cited in PMC9686322 (Frontiers in Neurology, 2022).

Experiments:
[1] = design: method as in PMID 29847694
[2] = design: method as in PMID 15956161, PMID 10626097, PMID 21080186

Structure (SMILES): N[C@@H](Cc1ccc(O)c(O)c1)C(=O)O [levodopa]
- Plasma half-life [1]: 1.5 to 2.5 h
- Threshold plasma concentration to achieve sustained relief of PD symptoms [2]: about 1,000 ng/ml
